Test: gradient 5% acetonitrile 3 min, to 50% in 2 min, to 85% in 15 min, held 3 min, 100 µL/min
Details: column: Zorbax Extend-C18 2.1 x 50 mm; eluents: water / acetonitrile, 0.1% formic acid
Method in brief: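 Data were gathered over 3 months by HPLC coupled to a quadrupole time-of-flight mass spectrometer, operated in positive and negative ionization mode. Mixtures of ~100 pure standards ran on a Zorbax Extend-C18 column (2.1 × 50 mm, 1.8 μm) at 100 μL/min, with water and acetonitrile each containing 0.1% formic acid and dead and dwell volumes of 40 μL and 900 μL. Retention time was read from adduct peaks picked by computer and checked manually.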

Structure (SMILES): CCNC(=O)C1CCN(C2=NS(=O)(=O)C(c3ccc(C(C)C)cc3)=C2C)CC1
- RP-LC retention time: 812 s

Structure (SMILES): Cc1ccc(CNc2nc(-c3ccc(Cl)cc3)nc3ccccc23)o1
- RP-LC retention time: 865 s

Structure (SMILES): CCC1CCCCN1c1cc(C)nc2nc(-c3ccc(C)cc3)nn12 (stereo not given)
- RP-LC retention time: 1160 s

Structure (SMILES): Cc1cc(C(=O)Nc2cnc(N3CCCCC3)nc2)no1
- RP-LC retention time: 845 s

Structure (SMILES): COC(=O)CCN1C(=O)c2ccccc2C1=O
- RP-LC retention time: 688 s

Structure (SMILES): Cc1ccc(-c2cn3cc(C(=O)NC(C)(C)C)ccc3n2)cc1
- RP-LC retention time: 692 s

Structure (SMILES): COc1ccccc1NC(=O)C12CCC(C)(C(=O)C1)C2(C)C (stereo not given)
- RP-LC retention time: 848 s

Structure (SMILES): CCCCOc1ccc(C(=O)NC2(c3nc(C)no3)CCCCC2)cc1
- RP-LC retention time: 1080 s

Structure (SMILES): CCCNc1cc(N2CCCC(CCC(=O)N3CCN(c4ncccn4)CC3)C2)ncn1 (stereo not given)
- RP-LC retention time: 637 s

Structure (SMILES): CCN1C(=O)c2cccc3c(NC(=O)c4cccs4)ccc1c23
- RP-LC retention time: 731 s

Structure (SMILES): Cc1noc(-c2nn(C)c3c2CN(C(=O)Nc2cccc(F)c2)CC3)n1
- RP-LC retention time: 744 s

Structure (SMILES): O=C(NCC(c1cccnc1)N1CCc2ccccc21)C(=O)Nc1ccc2c(c1)OCO2 (stereo not given)
- RP-LC retention time: 734 s

Structure (SMILES): CCn1cnnc1C1CCCCN1C(=O)CCc1c[nH]c2ccccc12 (stereo not given)
- RP-LC retention time: 697 s

Structure (SMILES): O=C(Cn1ncccc1=O)N1CCN(c2ccc(-c3ccccn3)nn2)CC1
- RP-LC retention time: 537 s

Structure (SMILES): CCCN1C(=O)COc2ccc(-c3csc(NC(C)=O)n3)cc21
- RP-LC retention time: 806 s

Structure (SMILES): CCc1ccc(NC(=O)C2CCCN(c3ncnc4c3nc3n4CCCCC3)C2)cc1 (stereo not given)
- RP-LC retention time: 824 s

Structure (SMILES): O=c1c(NCCc2ccccn2)nc2ccncc2n1Cc1ccccc1
- RP-LC retention time: 551 s

Structure (SMILES): CCOc1ccc(/C=C/c2nc(C#N)c(NCCN(C)C)o2)cc1
- RP-LC retention time: 668 s

Structure (SMILES): Cc1ccc(NS(=O)(=O)c2c(C)nc3sc4cc(C)ccc4n3c2=O)cc1
- RP-LC retention time: 1160 s

Structure (SMILES): CC1CCCN(CC2CCN(S(=O)(=O)c3cc(F)cc(F)c3)CC2)C1 (stereo not given)
- RP-LC retention time: 681 s

Structure (SMILES): O=C(N[C@@H]1CN(Cc2ccccn2)C[C@H]1CO)C1(c2ccccc2)CC1
- RP-LC retention time: 608 s

Structure (SMILES): CC(C)(C)c1cc(C(N)=O)n[nH]1
- RP-LC retention time: 602 s

Structure (SMILES): CCCCNC(=O)C1CCCN(c2nnc(C)c3c(C)n(-c4ccc(C)cc4)nc23)C1 (stereo not given)
- RP-LC retention time: 733 s

Structure (SMILES): CCOc1cccc2sc(N(CCCN(C)C)C(=O)CN3C(=O)CCC3=O)nc12
- RP-LC retention time: 559 s

Structure (SMILES): COc1ccccc1NC(=O)c1[nH]c2cc(C)sc2c1CN(C)C
- RP-LC retention time: 678 s

Structure (SMILES): COc1cccc(NC(=O)Cn2nc3c(N4CCCCCC4)nccn3c2=O)c1
- RP-LC retention time: 700 s

Structure (SMILES): CCc1cc(C(=O)N2CCN(CC)CC2)nc2cc(-c3cccs3)nn12
- RP-LC retention time: 646 s

Structure (SMILES): O=C(NCCn1ccc2ccccc21)C(=O)c1c[nH]c2ccccc12
- RP-LC retention time: 899 s

Structure (SMILES): O=C(CC1CCN(S(=O)(=O)c2ccc(Cl)s2)CC1)N1CCCCCC1
- RP-LC retention time: 1000 s

Structure (SMILES): Cn1nccc1C(=O)N1CCC(NS(=O)(=O)c2ccc(Cl)cc2)CC1
- RP-LC retention time: 704 s

Structure (SMILES): CCOC(=O)[C@H](C)C[C@@H](Cc1ccc(-c2ccccc2)cc1)NC(=O)CCC(=O)O
- RP-LC retention time: 1010 s

Structure (SMILES): Cn1cc(CCN2CCC(C(=O)NCc3cccs3)CC2)c2cccnc21
- RP-LC retention time: 595 s

Structure (SMILES): CNC(=O)[C@@H]1CN(C(=O)Cc2c(C)noc2C)C[C@H]1c1nc(C)no1
- RP-LC retention time: 599 s

Structure (SMILES): O=C(Nc1ccc(F)c(Cl)c1)N1CCCC(Cn2c(C3CC3)nc3cccnc32)C1 (stereo not given)
- RP-LC retention time: 744 s

Structure (SMILES): COc1ccc(Cc2nc(-c3cccc(-c4ccn[nH]4)c3)no2)cc1OC
- RP-LC retention time: 830 s

Structure (SMILES): Cc1oc(-c2ccc(NC(=O)c3ccc(Cl)s3)cc2)nc1Cn1cccn1
- RP-LC retention time: 980 s

Structure (SMILES): Cc1cccc(C(=O)N2CCc3nc[nH]c3C2)c1
- RP-LC retention time: 569 s

Structure (SMILES): COc1cccc(Cn2c(C(=O)N3CCC(C(=O)NCC4CCCCC4)CC3)cc3ccsc32)c1
- RP-LC retention time: 1090 s

Structure (SMILES): COc1ccc(-c2c(C)noc2NC(C)=O)cc1S(=O)(=O)Nc1ccc2c(c1)OCCO2
- RP-LC retention time: 707 s

Structure (SMILES): COc1cc(-c2nnc(-c3cccc(S(=O)(=O)N4CCCC4)c3)o2)cc(OC)c1OC
- RP-LC retention time: 916 s

Structure (SMILES): CCNc1cc(N2CCCC(CCC(=O)N3CCc4ccccc4C3)C2)ncn1 (stereo not given)
- RP-LC retention time: 694 s

Structure (SMILES): CCOc1ccc(NC(=O)C2CCCN(c3nc4ccccc4nc3C(F)(F)F)C2)cc1 (stereo not given)
- RP-LC retention time: 1210 s

Structure (SMILES): O=C(NC1CCN(c2cc(-c3cccs3)[nH]n2)C1)c1ccc(Cl)cc1 (stereo not given)
- RP-LC retention time: 776 s

Structure (SMILES): COc1ccc(-c2cc(N3CCC(NC(=O)C4(c5ccccc5)CC4)CC3)n[nH]2)cc1
- RP-LC retention time: 817 s

Structure (SMILES): CCOc1ccc(NC(=O)CSc2ncc(S(=O)(=O)c3ccccc3)c(=O)[nH]2)cc1
- RP-LC retention time: 737 s

Structure (SMILES): Fc1cccc(-c2noc(-c3ccc(N4CCN(CCOc5ccc(Cl)cc5)CC4)nc3)n2)c1
- RP-LC retention time: 920 s

Structure (SMILES): O=C(Cn1nc(-c2ccccc2)c2cc(Cl)ccc21)N1CCN(c2ccccn2)CC1
- RP-LC retention time: 757 s

Structure (SMILES): CC1CN=C2C=C(N3CCN(S(=O)(=O)Cc4cccc(Cl)c4)CC3)N=CN21 (stereo not given)
- RP-LC retention time: 627 s

Structure (SMILES): Cc1cccc(S(=O)(=O)N2CC(F)(F)C[C@H]2CN2CCc3ccccc3C2)c1
- RP-LC retention time: 773 s

Structure (SMILES): Cc1ccccc1NS(=O)(=O)c1cn(C(C)C)c2ncccc12
- RP-LC retention time: 896 s

Structure (SMILES): CCNC(=O)N1CCCC(c2cccc(C(=O)NCc3ccc(CC)cc3)c2)C1 (stereo not given)
- RP-LC retention time: 908 s

Structure (SMILES): CC(C)Cc1noc(C2(F)CCN(S(=O)(=O)c3cccc(Cl)c3)CC2)n1
- RP-LC retention time: 1190 s

Structure (SMILES): CC(C)n1cnc2c(NCCc3ccc(O)cc3)nc(-c3csc4ccccc34)nc21
- RP-LC retention time: 1160 s

Structure (SMILES): Cn1cc(S(=O)(=O)N2CCCCC2)cc1C(=O)NC1CCCCC1
- RP-LC retention time: 953 s

Structure (SMILES): Cc1noc([C@@H]2CC(F)(F)CN2C(=O)c2ccco2)n1
- RP-LC retention time: 706 s

Structure (SMILES): CC(C)NC(=O)Cn1c(-c2ccccc2F)nc2ccccc21
- RP-LC retention time: 589 s

Structure (SMILES): Cc1nc(-c2cc(S(=O)(=O)Nc3ccc(F)c(Cl)c3)c(C)s2)cs1
- RP-LC retention time: 1030 s

Structure (SMILES): Cc1ccc(Nc2c(-c3ccc(Cl)cc3)nc3ccc(Cl)cn23)cc1
- RP-LC retention time: 1060 s

Structure (SMILES): Cc1ccc(CC(=O)Nc2c(C(=O)N3CCN(c4ccccn4)CC3)oc3ccccc23)cc1
- RP-LC retention time: 716 s

Structure (SMILES): COCCN1C(=O)c2ccccc2C(C(=O)NCc2ccc(F)cc2)C12CCCCC2 (stereo not given)
- RP-LC retention time: 877 s

Structure (SMILES): CCOC(=O)C1CCCN(C(=O)CCC2NC(=O)c3ccccc3NC2=O)C1 (stereo not given)
- RP-LC retention time: 621 s

Structure (SMILES): CN(Cc1ccccc1)C(=O)Cn1c(=O)c2cnc(-c3ccccc3)nc2n(C)c1=O
- RP-LC retention time: 1020 s

Structure (SMILES): O=C(COc1ccc(Br)cc1)Nc1cncc(-c2nc3ccccc3o2)c1
- RP-LC retention time: 1040 s

Structure (SMILES): Cc1nc(-c2cc(S(=O)(=O)N(C)C3CCCCC3)c(C)s2)sc1C
- RP-LC retention time: 1320 s

Structure (SMILES): CC1(CNS(=O)(=O)c2ccc(F)c(F)c2)CCOCC1
- RP-LC retention time: 810 s

Structure (SMILES): O=C(NCC1(CO)CC1)c1cccc(C(F)(F)F)c1
- RP-LC retention time: 691 s

Structure (SMILES): CCOc1cc2c(cc1OCC)C(c1ccc(OC)c(OC)c1OC)CC(=O)N2 (stereo not given)
- RP-LC retention time: 836 s

Structure (SMILES): Cc1ccc(-n2c(=O)c3sccc3n(Cc3nc(-c4cccc(Br)c4)no3)c2=O)cc1
- RP-LC retention time: 1110 s

Structure (SMILES): Cc1ccc(C(=O)NCc2ccc(-n3ccnc3)cc2)s1
- RP-LC retention time: 602 s

Structure (SMILES): CCSc1ccccc1C(=O)NCC1CCN(S(=O)(=O)C2CC2)CC1
- RP-LC retention time: 725 s

Structure (SMILES): COc1ccccc1CNC(=O)Cn1c(N2CCOCC2)nc(C)cc1=O
- RP-LC retention time: 654 s

Structure (SMILES): O=C(Cn1nc2c3sc(N4CCCCC4)nc3ncn2c1=O)Nc1cccc(Br)c1
- RP-LC retention time: 855 s

Structure (SMILES): Cc1cc(C)cc(NC(=O)Cn2c(-c3cnccn3)nc(C)c(C)c2=O)c1
- RP-LC retention time: 774 s

Structure (SMILES): O=c1cc(CSc2nnc(-c3ccccc3F)o2)nc2sccn12
- RP-LC retention time: 745 s

Structure (SMILES): COc1cccc(N2CCN(S(=O)(=O)c3cccc(-c4nc(-c5ccccc5)no4)c3)CC2)c1
- RP-LC retention time: 1290 s

Structure (SMILES): COc1cccc(-c2nc3ccccc3n2CC(=O)N2CCC(C)CC2)c1
- RP-LC retention time: 668 s

Structure (SMILES): CN(C)c1cncnc1-n1cc(NC(=O)CCc2ccccc2)cn1
- RP-LC retention time: 624 s

Structure (SMILES): Cc1cccc(N2CCN(Cc3nc(-c4ccc(N5CCCCC5)nc4)no3)CC2)c1
- RP-LC retention time: 965 s

Structure (SMILES): CCCOc1ccc(C2C(=O)N(C3CCC(C)CC3)CC(=O)N2Cc2ccco2)cc1OC (stereo not given)
- RP-LC retention time: 1070 s

Structure (SMILES): CCn1c(CCNC(=O)Cc2ccc(Cl)cc2)nc2cccnc21
- RP-LC retention time: 639 s

Structure (SMILES): Cc1cc2nc(NCCCO)n(CC(=O)c3cc(C(C)(C)C)c(O)c(C(C)(C)C)c3)c2cc1C
- RP-LC retention time: 1030 s

Structure (SMILES): CCn1c(C)c(CN2CCC(C(=O)NCc3ccccc3C)CC2)c2ccccc21
- RP-LC retention time: 742 s

Structure (SMILES): CS(=O)(=O)N1CCCc2cc(C(=O)Nc3cccc(Br)c3)ccc21
- RP-LC retention time: 984 s

Structure (SMILES): CN(C)c1ccc(CNC(=O)C2CCN(c3cncnc3N3CCCCC3)CC2)cc1
- RP-LC retention time: 564 s

Structure (SMILES): CCN(C(=O)c1cc2c(=O)n(CC)c3ccccc3n2n1)c1ccc(F)cc1
- RP-LC retention time: 945 s

Structure (SMILES): Cc1ccc(-n2c(N3CCCC(C(=O)Nc4ccc(C)c(Cl)c4)C3)nc3ccsc3c2=O)cc1 (stereo not given)
- RP-LC retention time: 1160 s

Structure (SMILES): Cc1cccc(CC(=O)NCCSc2ncc(-c3ccccc3)[nH]2)c1
- RP-LC retention time: 607 s

Structure (SMILES): COc1ccc(NS(=O)(=O)c2[nH]ncc2C(=O)NCc2ccc(SC)cc2)cc1
- RP-LC retention time: 807 s

Structure (SMILES): CC(C)Cn1nc2n(c1=O)CCN(S(=O)(=O)c1ccccc1C(F)(F)F)CC2
- RP-LC retention time: 847 s

Structure (SMILES): CCOC(=O)c1c(S(=O)(=O)N2CCC(C(=O)Nc3cccnc3)CC2)c(C)n(C)c1C
- RP-LC retention time: 623 s

— the METLIN SMRT retention time set (Domingo-Almenara et al. 2019)
